From article PMC3003306 (Structure (London, England : 1993), 2010)

Molecular target: T1, IGPS (HisF-HisH heterodimer), glutaminase site in HisH (Thermotoga maritima, UniProt Q9X0C8)
T1 sequence (Q9X0C8 1-201): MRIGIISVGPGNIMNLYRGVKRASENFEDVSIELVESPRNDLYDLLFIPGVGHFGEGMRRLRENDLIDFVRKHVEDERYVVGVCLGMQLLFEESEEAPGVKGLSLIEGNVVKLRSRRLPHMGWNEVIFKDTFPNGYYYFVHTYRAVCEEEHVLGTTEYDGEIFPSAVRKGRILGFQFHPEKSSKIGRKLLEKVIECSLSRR
T1 sequence (Q9X0C6 1-253 partner): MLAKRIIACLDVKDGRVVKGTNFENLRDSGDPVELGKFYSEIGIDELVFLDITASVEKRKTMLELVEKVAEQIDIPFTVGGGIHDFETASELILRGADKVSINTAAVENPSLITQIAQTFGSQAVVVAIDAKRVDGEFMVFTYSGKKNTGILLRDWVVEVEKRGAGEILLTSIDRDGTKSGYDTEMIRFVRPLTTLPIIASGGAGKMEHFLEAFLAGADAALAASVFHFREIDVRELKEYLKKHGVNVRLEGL
Assay: covalent modification of HisH C84 followed by DTNB analysis
Assay type: binding
Settings: 1.5 molar equivalents acivicin, room temperature, HisH active site nucleophile C84

N[C@H](C(=O)O)[C@@H]1CC(Cl)=NO1 [acivicin]
covalent modification of HisH C84 followed by DTNB analysis; NMR: IGPS (HisH-C84) was covalently modified with acivicin
